Values quoted from earlier work as cited in US7195789B2, “Non-fiber extract of psyllium with anti-tumorigenic effects and method for identifying the same” (Board of Trustees of Michigan State University, priority 2002, dated 2007).

How the values were obtained:
[1] = test system: ras protein (p21^ras); settings: Na et al. 2000
[2] = test system: WB-Ha-ras cells; settings: WB-Ha-ras cell line; Na et al. 2000
[3] = test system: connexin 43; settings: Na et al. 2000
[4] = test system: WB-Ha-ras cells; settings: WB-Ha-ras cell line; Na et al. 2000; remark: listed apart in the source

Structure (SMILES): O=C(/C=C/c1ccc(O)c(O)c1)OCCc1ccccc1 [CAPE, phenylethyl ester of caffeic acid]
- protein level of p21^ras by Western blot [1]: decreased
- restoration of GJIC [2]: restored GJIC
- expression of hyperphosphorylated Cx43 [3]: restored
- inhibition of AIG [4]: inhibited AIG
